Publication PMC9658316, “Discovery of Mitochondrial Complex I Inhibitors as Anticancer and Radiosensitizer Drugs Based on Compensatory Stimulation of Lactate Release” (Cancers, 2022)
pIC50: −log10 of the molar value.

Assays:
[1] = system: breast 4T1 cancer cells; assay: Growth inhibitory effects on cultured 4T1 cells (Presto Blue); format: cell-based, mouse; conditions: 4T1 monolayers, 1 µM, 72 h, compared with CT26
Description: (§1) Mouse colorectal CT26 and breast 4T1 cancer cells as well as human cervix cancer SiHa and breast MDA-MD-231 cancer cells were acquired from ATCC where they are regularly authenticated by short tandem repeat profiling. They were stored according to the supplier’s instructions and used within 6 months after resuscitation of frozen aliquots. Cancer cells were maintained in DMEM (Life Technologies, ThermoFischer scientific, Merebelke, Belgium) supplemented with 10% heat-inactivated FBS. All cell lines were tested for mycoplasma contamination with the MycoAlert™ Mycoplasma Detection kit (#LT07-318; Lonza, Verviers, Belgium) before being used. Cell integrity was determined by the Trypan Blue exclusion method (using Bürker chambers) while cell growth was assessed by using the Presto Blue reagent (Life Technologies) according to manufacturer’s instructions.
(§2) Figure 4 Mitochondrial complex I activity inhibition (Assay #2). (A–D). Graphs depict changes in O2 consumption rate (OCR) measured with the Seahorse technology on permeabilized CT26 cancer cells upon successive addition of pyruvate/malate, the indicated inhibitor and succinate. OXPHOS I inhibitor IACS was used as a control in the experiments testing reference compound aa (A), and compound aa (10µM) was used as reference for testing au, ah and at derivatives (B–D) (n = 6 per compound). (E,F). Growth inhibitory effects of cultured CT26 (E) and 4T1 […] cancer cells exposed to 100 nM IACS or 1 µM aa, ag, aj and au compounds for 72 h; data represent the reduced extent (expressed as %) of cell viability (determined with Presto Blue) when compared with vehicle conditions (n = 3).

[2] = system: colorectal CT26 cancer cells; assay: Compound-induced L-lactate release (Assay #1), CT26; format: cell-based, mouse; conditions: 10 µM; for L-lactate release compared with reference compound aa: 24 h; for [LAC] increase: 24 h exposure, L-lactate secretion above basal release
Method: (§3) L-lactate concentration was measured in a semi-automated manner using CMA Microdialysis AB enzymatic assay and a CMA 600 analyzer (Aurora Borealis, Schoonebeek, The Netherlands) as previously described. Briefly, cells (2 × 10^5 cells per well; 3 wells/condition) were seeded in 12-well plates with 2 mL of their routine culture medium. After 24 h, medium was replaced by 500 µL of DMEM containing 10 mmol/L D-glucose and supplemented with 2 mmol/L L-glutamine and 10% dialyzed FBS (Sigma-Aldrich), in the presence of the compounds or vehicle (DMSO). The initial concentration of L-lactate in the experimental medium was also assessed by including control wells containing only cell culture medium (no cells) on each plate. After incubation for 24 h, extracellular media were collected and deproteinized by centrifugation (15 min, 10,000 rpm, 4 °C) in 10 kDa cut-off filter tubes (VWR, Avantor, Leuven, Belgium). Differences in L-lactate concentrations between control and treated cells were calculated and normalized by the protein content in each well and expressed in µmol/h/mg protein. Oxygen-consumption rate (OCR) was measured using the Seahorse XF96 plate reader as previously reported. Briefly, cells (2 × 10^4 cells per well) were first permeabilized with 1 nM Seahorse XF Plasma Membrane Permeabilizer (#102504-100; Agilent, Machelen, Belgium) and respiration was stimulated by adding 10 mM pyruvate, 5 mM malate, and 2 mM ADP. After baseline OCR determination, compounds were added (to inhibit complex I) followed by 10 mM succinate to fuel complex II and rescue the electron transport chain. In some experiments, the effects of selected hits on basal OCR were evaluated in intact cells (including in the presence of MCT1/2 inhibitor AR-C155858 [29] or methylpyruvate). OCR data were normalized according to protein content in each well.
Figure 3 Compound-induced L-lactate release (Assay #1). Culture medium was collected after 24 h exposure to the indicated compounds (10 µM) and the amount of extracellular L-lactate release was determined in a semi-automated manner; dose-dependent effects of complex I inhibitor IACS are shown on the right (shaded bars). Bar graph depicts the extent of L-lactate secretion above the basal release as determined in the absence of any compound (n = 3, ** p < 0.01 for increased L-lactate release vs. reference compound aa).

[3] = system: CT26 colon cancer cells; assay: Growth inhibitory effects on cultured CT26 cells (Presto Blue); format: cell-based, mouse; conditions: CT26 monolayers, 1 µM, 72 h
Description: as §1, §2

[4] = system: 3D tumor CT26 spheroids; assay: Inhibition of 3D tumor spheroid growth (Assay #3); format: cell-based, mouse; conditions: for spheroid growth inhibition compared with reference compound aa: CT26 spheroids, day 10; for 3D growth inhib. (%): 3D tumor CT26 spheroids
Method: (§4) Spheroids were prepared by seeding 1500 cells/well in Ultra-Low Attachment 96-well plate (Corning, Merck, Hoeilaart, Belgium) in DMEM supplemented with 10% heat-inactivated FBS. Inhibitors were added on day 4 (mean diameter of spheroids: 300 µm) and renewed every 3 days. Spheroid growth was monitored using live-cell phase contrast microscope (Axio Observer, Zeiss, Zaventem, Belgium); spheroid area, density and morphology were measured using ImageJ software. Confocal fluorescence microscopy (LSM510, Zeiss, Zaventem, Belgium) was used for detecting pimonidazole immunostaining as previously reported. Spheroids from a same experiment were imaged with the same gain and exposure settings. In some experiments, OXPHOSi treatment was combined with irradiation using a ^137Cs γ-irradiator (IBL-637; CIS-BioInternational, Saclay, France) as previously described.
(§5) Figure 5 Inhibition of 3D tumor spheroid growth (Assay #3). […] Drug exposure without (A) or with irradiation (B) was associated with a significant reduction in spheroid sizes vs. untreated spheroids (not shown).

[5] = system: human cervix Siha cancer cells; assay: Growth inhibitory effects on human cancer cells (Presto Blue), SiHa vs MDA-MB-231; format: cell-based; conditions: 1 µM
Description: as §1
Suppl. Figure S3. Growth inhibitory effects of hit compounds on human cancer cells. MDA-M B-231 (A) and Siha (B) cancer cells were exposed to 100 nM IACS or 1 µM aa, ag, aj and au compounds; data represent the reduced extent (expressed as %) of cell viability (determined with Presto Blue) when compared with vehicle conditions (n=3).
(also on this page, place not known: 60Growth inhibitory effects (%) MDA-MB-231 aa au 60Growth inhibitory effects (%))

[6] = biological target: mitochondrial complex I (Mus musculus, UniProt P03888+Q91WD5+Q9DC70); assay: Seahorse OCR in permeabilized CT26 cancer cells, mitochondrial complex I inhibition (Assay #2); format: cell-based; conditions: for pattern of OCR inhibition activity relative to aa: 1 and 10 µM; for pIC50: pyruvate/malate, tested at 1 and 10 µM, read-out: OCR inhib. (IC50)
Method: as §3
(A–D). Graphs depict changes in O2 consumption rate (OCR) measured with the Seahorse technology on permeabilized CT26 cancer cells upon successive addition of pyruvate/malate, the indicated inhibitor and succinate. […] (E,F).

[7] = system: breast cancer 4T1 cancer cells; assay: Compound-induced L-lactate release (Assay #1), 4T1; format: cell-based, mouse; conditions: 4T1 cells, 24 h
Method: L-lactate concentration was measured in a semi-automated manner using CMA Microdialysis AB enzymatic assay and a CMA 600 analyzer (Aurora Borealis, Schoonebeek, The Netherlands) as previously described. Briefly, cells (2 × 10^5 cells per well; 3 wells/condition) were seeded in 12-well plates with 2 mL of their routine culture medium. After 24 h, medium was replaced by 500 µL of DMEM containing 10 mmol/L D-glucose and supplemented with 2 mmol/L L-glutamine and 10% dialyzed FBS (Sigma-Aldrich), in the presence of the compounds or vehicle (DMSO). The initial concentration of L-lactate in the experimental medium was also assessed by including control wells containing only cell culture medium (no cells) on each plate. […] Differences in L-lactate concentrations between control and treated cells were calculated and normalized by the protein content in each well and expressed in µmol/h/mg protein. Oxygen-consumption rate (OCR) was measured using the Seahorse XF96 plate reader as previously reported. […] In some experiments, the effects of selected hits on basal OCR were evaluated in intact cells (including in the presence of MCT1/2 inhibitor AR-C155858 [29] or methylpyruvate). […]
Suppl. […] Culture medium was collected after 24h exposure to the indicated compounds and lactate content was determined in a semi-automated manner. […]

[8] = system: 3D tumor CT26 spheroids; assay: Radiosensitizing effects in 3D tumor spheroids (6 Gy irradiation); format: cell-based, mouse; conditions: 6 Gy irradiation at day 4, day 10 vs day 3
Method: as §4, §5
We also took advantage of 3D tumor spheroids to evaluate whether they could radiosensitize tumors upon O2 sparing resulting from inhibition of O2 consumption. […]

[9] = system: 3D tumor CT26 spheroids; assay: Pimonidazole immunostaining of hypoxia in spheroids; format: cell-based, mouse; conditions: treated spheroids
Method: as §4
(§6) Figure 6 Radiosensitizing effects of selected complex I inhibitors. (A) Extent of surviving cancer cells post-exposure to radiotherapy and the indicated compounds (n = 3, * p < 0.05, ** p < 0.01 vs. vehicle condition).

[10] = system: cancer cells from dissociated spheroids; assay: Regrowth of cells from dissociated spheroids after irradiation and compound; format: cell-based, mouse; conditions: plated for 14 days, compared with aa
Description: Finally, to document the expected re-oxygenation, spheroids treated with compounds aa, aj and am were exposed to the hypoxia probe pimonidazole.
as §6

| Compound | growth inhibitory activity [1] | L-lactate release compared with reference compound aa [2] | [LAC] increase [2] | cytotoxic / growth inhibitory effects [3] | spheroid growth inhibition compared with reference compound aa [4] | antiproliferative effects in Siha compared with MDA-MB-231 cells [5] | pattern of OCR inhibition activity relative to aa [6] | L-lactate release compared with aa compound [7] | 3D growth inhib. (%) [4] | change in spheroid size with irradiation [8] | reduction of hypoxia (pimonidazole) [9] | ability of cancer cells to re-grow after irradiation and compound [10] | pIC50 [6] |
| --- | --- | --- | --- | --- | --- | --- | --- | --- | --- | --- | --- | --- | --- |
| NC(=O)c1nnn(Cc2cc(Cl)c(C(=O)c3ccc(C(F)(F)F)cc3)c(Cl)c2)c1N [ag] | more significant growth inhibitory activity | more potent inducers of L-lactate release | ~4 µmol/h/mg | very limited effects | inhibited spheroid growth to the same extent as compound aa | Larger antiproliferative effects |  |  |  |  |  |  |  |
| COC(=O)c1cn(Cc2cc(Cl)c(C(=O)c3ccc(Cl)cc3)c(Cl)c2)nn1 [compound au] | more significant growth inhibitory activity | more potent inducers of L-lactate release | ~4 µmol/h/mg | very limited effects | significantly lesser growth inhibitory effects than compound aa | Larger antiproliferative effects | equiactive | more | <25% |  |  |  |  |
| NC(=O)c1nnn(Cc2cc(Cl)c(C(=O)C3CCCCC3)c(Cl)c2)c1N [compound aj] | more significant growth inhibitory activity | more potent inducers of L-lactate release | ~4 µmol/h/mg | very limited effects | significantly more active than reference compound aa | Larger antiproliferative effects |  |  | >50% | net reduction in the spheroid size | reduced hypoxia to a larger extent than compound aa | much lesser ability to re-grow |  |
| NC(=O)c1nnn(Cc2cc(Cl)c(Cc3ccc(Cl)cc3)c(Cl)c2)c1N [compound am] |  | more potent inducers of L-lactate release | ~4 µmol/h/mg |  | significantly more active than reference compound aa |  |  |  | >50% | net reduction in the spheroid size | reduced hypoxia to a larger extent than compound aa | much lesser ability to re-grow | ~5.00 |
| NCc1cn(Cc2cc(Cl)c(C(=O)c3ccc(Cl)cc3)c(Cl)c2)nn1 [at] |  |  | ~0 µmol/h/mg |  |  |  | inactive | less potent |  |  |  |  | < 5.00 |
